Data published in PMC11988454, “Discovery of synthetic small molecules targeting the central regulator of Salmonella pathogenicity” (Science Advances, 2025).

Key:
S. Typhimurium SL1344 = test: Growth in LB medium (OD at 600 nm); type: cell-based; conditions: C26 at different concentrations
Description: Experiment performed in a 96-well plate. Growth assessed by measuring the OD at 600 nm (N = 3 biological replicates).

[1] = tested on: T3SS-1 proteins SipA, SctE (SipB), SctP (InvJ); T1SS protein SiiF; test: Western blotting of secreted and whole-cell proteins; type: cell-based, S. Typhimurium; conditions: Western blot
Description: Western blot analysis to quantify secreted and nonsecreted proteins was carried out as previously described ([66]). After a 5-hour culture under SPI-1–inducing conditions, cultures were centrifuged at 10,000g for 2 min at 4°C to separate cell pellets for the quantification of target proteins in whole cells, and the supernatant for the quantification of secreted proteins. The supernatants were first filtered with a 0.22-μm pore size filter. Sodium deoxycholic acid was then added to a final concentration of 0.1% (w/v) followed by a protein precipitation with 10% trichloroacetic acid (v/v) for 30 min at 4°C. The samples were pelleted by centrifugation at 20,000g for 20 min at 4°C to retrieve precipitated proteins, which were lastly washed with acetone before resuspension in SDS–polyacrylamide gel electrophoresis (PAGE) loading buffer. Whole-cell samples were directly resuspended in SDS-PAGE loading buffer.

macrophages RAW 264.7 = test: In vitro toxicity, CellTox Green Cytotoxicity Assay, macrophages; type: cell-based; conditions: RAW 264.7, 6 hours exposure
Description: The screening of in vitro toxicity of the compound analogs was performed with the CellTox Green Cytotoxicity Assay (Promega, USA) according to the manufacturer’s instructions. Cells (10^4 cells per well) were seeded into a 96-well plate and incubated for 24 hours at 37°C, 5% (v/v) CO2. Cells were then treated with the compound at different concentrations or 1% (v/v) DMSO in Dulbecco’s modified Eagle’s medium (DMEM) without phenol red at the desired exposure time. Fluorescence intensity was measured with a TECAN Spark microplate reader. […] page 4: […] 0 10000 20000 30000 40000 50000 Compound concentration (µM) Cytotoxicity (RFU) Fig. S3. […] Cytotoxicity Assay. Fluorescence was measured as a readout for cytotoxicity at 485Ex/520Em. N = 3 biological replicates. (1 picture or pasted object on this page, not shown here)

[2] = tested on: S. Typhimurium invasion of HeLa cells; test: Invasion assay into HeLa cells; type: cell-based; conditions: C26 100 μM, MOI 20
Description: In a white 24-well plate (NUNC), 10^5 HeLa cells were seeded in 350 μl of DMEM (Gibco), 24 hours before the infection. Bacteria were grown in LB supplemented with 0.3 M NaCl and either compound at different concentrations or 1% (v/v) DMSO, at 37°C with shaking at 180 rpm until an OD600 of 0.9 was reached. Bacteria were then pelleted and washed twice with HBSS. The bacterial suspension was diluted to obtain an MOI of 20 to infect HeLa cells. The plate was centrifuged for 5 min at 300g to synchronize the infection and then incubated for 25 min at 37°C and 5% (v/v) CO2 to allow Salmonella invasion into HeLa cells. To quantify the invasiveness, the cells were first washed three times with 500 μl of prewarmed PBS. The remaining extracellular bacteria were killed with 500 μl of DMEM supplemented with gentamicin (100 μg/ml). HeLa cells were incubated for 1 hour and then washed three times with prewarmed PBS and lysed with 500 μl of 0.5% (v/v) SDS in PBS for 5 min at 37°C on a shaking platform. The lysate was serial diluted in PBS-T [PBS with 0.05% (v/v) Tween 20] to determine the colony-forming units (CFUs) by plating on LB medium supplemented with streptomycin (50 μg/ml).

HilD = target: T1, HilD (Salmonella typhimurium, UniProt E1WAC0); test: Whole-cell HilD activity assay (PhilA-sfGFP activation); type: cell-based, S. Typhimurium
T1 construct: endogenous in cells; host or cells: S. Typhimurium SL1344 strain PhilA-sfGFP
Description: A whole-cell reporter gene assay was used to quantify HilD transcriptional activity. Strain PhilA-sfGFP and the isogenic ΔhilD PhilA-sfGFP were used for this purpose. Cultures were performed in 1 ml of LB supplemented with 0.3 M NaCl. Compounds at different concentrations or 1% (v/v) DMSO were added to the corresponding tubes. Cultures were incubated at 37°C and 180 rpm for 5 hours. Cells were pelleted, resuspended in 100 μl of PBS, and then transferred into a 96-well black clear-bottom plate (Thermo Fisher Scientific, USA). Fluorescence intensity was measured with a Tecan Spark microplate reader with an excitation wavelength of 485 nm and an emission wavelength of 510 nm. Dose-response curves and IC50 values were calculated using CDD Vault.

HilD-HilE heterodimer = HilD-HilE heterodimer (Salmonella typhimurium, UniProt P0CL08); test: MST dimerization assay HilD-HilE; type: binding, S. Typhimurium; conditions: 100 μM compound
Description: MST measurements for the binding of HilD to HilE were performed as previously described ([39]). In summary, enhanced yellow fluorescent protein (EYFP)-HilD (100 nM) was incubated with 100 μM either oleic acid or C26 [with a final concentration of 1% (v/v) DMSO] for 10 min at r.t. (22° to 25°C) and subsequently mixed 1:1 with varying concentrations of HilE. Samples were incubated together for 10 min at r.t., centrifuged for 5 min, and loaded to standard capillaries (NanoTemper Technologies GmbH, no. MO-K022). MST runs were performed at 25°C on a NanoTemper Monolith NT.115, with an excitation power of 60% and medium MST power. Data were analyzed using the MO.Affinity Analysis v2.3 software, and affinity constants were calculated using the Kd model.

T1 sequence (E1WAC0 whole entry): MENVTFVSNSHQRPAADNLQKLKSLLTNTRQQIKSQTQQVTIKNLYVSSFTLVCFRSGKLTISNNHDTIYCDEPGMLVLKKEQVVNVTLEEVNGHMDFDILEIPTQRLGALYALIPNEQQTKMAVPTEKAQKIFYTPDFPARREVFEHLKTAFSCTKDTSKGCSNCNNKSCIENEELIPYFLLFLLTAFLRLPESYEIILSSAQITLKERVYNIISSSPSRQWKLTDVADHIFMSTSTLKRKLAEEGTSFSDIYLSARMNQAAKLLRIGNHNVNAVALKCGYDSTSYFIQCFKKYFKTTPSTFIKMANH
Sequence of HilD-HilE heterodimer (P0CL08 whole entry, one chain of several): as the sequence (E1WAC0 whole entry) above

Compound: CN(CC(=O)NCc1ccc2c(c1)OCO2)Cc1ccc(Br)s1 [C26, N-(benzo[d][1,3]dioxol-5-ylmethyl)-2-{[(5-bromothiophen-2-yl)methyl](methyl)amino}acetamide]
- growth of S. Typhimurium (S. Typhimurium SL1344): did not impair the growth
- SipA, SctE and SctP secretion into the culture supernatant [1]: reduced in a dose-dependent manner
- expression of SipA, SctE and SctP in whole cells [1]: blocked the expression
- expression of SiiF ([1]; FLAG-tagged SiiF): dose-dependent reduction
- toxicity in macrophages (macrophages RAW 264.7): No toxicity was observed
- invasiveness of HilDY46A mutant into HeLa cells [2]: unaffected
- Invasion of HeLa cells (%), of the original inoculum ([2]; DMSO control 11.75): 3.5%
- IC50 (HilD): 16.9 µM
- formation of HilD-HilE heterodimers (HilD-HilE heterodimer): no effect on heterodimerization
